Data on 13 compounds can be found in US8604029B2, “2-[(2-substituted)-indolizin-3-yl]-2-oxo-acetamide derivatives as antifungal agents” (F2G Ltd British Body Corporate, priority 2006, dated 2013).

Common to all, as to format: cell-based
The test system of one test is Aspergillus flavus. Nature of the test: MIC measurement, YAG medium. Particulars: MIC banded into grades, lowest concentration inhibiting growth by >70%; for MIC: Aspergillus flavus. An outline of the steps:
(§1)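 Spores from 5-day Sabouraud agar cultures were diluted in YAG medium (1% glucose, 1% ammonium chloride, 0.5% yeast extract) to a final inoculum of 1-2×10^4 cfu/mL, with drug at 50-0.05 mg/L. Plates were incubated 24 h at 35° C and read as OD 485 nm. MIC is the lowest concentration giving >70% inhibition versus drug-free control, in mg/L.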

For test [1], the system named is Aspergillus fumigatus AF210. Nature of the test: MIC measurement, YAG medium. Particulars: MIC banded into grades; for MIC: Aspergillus fumigatus, strain AF210, read-out: MIC A. fumigatus 210. An outline of the steps: as §1
The subject of the next test is Aspergillus fumigatus. Nature of the test: MIC measurement, YAG medium. Particulars: YAG medium, MIC banded into grades, strain AF293; for MIC: Aspergillus fumigatus, read-out: MIC A. fumigatus. An outline of the steps:
as §1

A further test deals with Aspergillus terreus AT49. Nature of the test: MIC measurement, YAG medium. Particulars: MIC banded into grades; for MIC: Aspergillus terreus, strain AT49, read-out: MIC A. terreus 49. In short, it runs like this:
as §1

The next test deals with Aspergillus terreus. Nature of the test: MIC measurement, YAG medium. Particulars: MIC banded into grades, strain not named in head (AT4); for MIC: Aspergillus terreus. In short, it runs like this:
as §1

The subject of another test is Aspergillus niger. The test is described as follows: MIC measurement, YAG medium. Particulars: MIC banded into grades; for MIC: Aspergillus niger. In short, it runs like this: as §1
The test system of the next test is Fusarium solani. Nature of the test: 24 hr MIC measurement, RPMI medium. Particulars: Fusarium solani FS2, MIC banded into grades. The method, then: Between 1 and 5 mgs of compound were accurately weighed out into a sterile Eppendorf tube. The compound was dissolved in DMSO to give a solution containing […]. Tubes were stored at −20° C. until required.
On the day of testing thawed solutions were vortex mixed to ensure homogeneity. 30 μL of solution was removed and added to 570 μL of sterile water in a separate sterile Eppendorf. The thoroughly mixed solution was used to prepare a series of doubling dilutions in water, in a deep well plate. Thirteen replicate plates were prepared using a Minitrak by aspirating 20 μL from each well into eleven clear polystyrene 96 well plates.
Spores of Aspergillus spp. […]
This produced MIC plates with a drug range 50-0.05 mg/L and organism inocula of 1-2×10^4 cfu/mL for Aspergillus spp. and other filamentous fungi and 1-2×10^3 cfu/mL for yeasts. […] Growth was assessed by monitoring the optical density at 485 nm for each well. […] MICs are recorded as mg/L. Other growth media can be used for susceptibility testing, and the activity of the described compounds can also be assessed in a medium comprising 1% glucose, 1% ammonium chloride and 0.5% yeast extract (YAG medium). […] Growth was assessed by monitoring the optical density at 485 nm for each well. […]

In brackets after ≈: the same amount, converted by molar mass.

For `C[C@@H]1CN(C2CCN(c3ccc(NC(=O)C(=O)c4c(-c5ccccc5)cc5ccccn45)cc3)CC2)C[C@H](C)O1` [Example 24, N-{4-[4-(2,6-Dimethyl-morpholin-4-yl)-piperidin-1-yl]-phenyl}-2-oxo-2-(2-phenyl-indolizin-3-yl)-acetamide], the MIC (against Aspergillus flavus; in test [1]; in the test with Aspergillus fumigatus; with Aspergillus terreus AT49; in the test on Aspergillus terreus; against Aspergillus niger) was below 1 mg/L each time. Also, the MIC against Fusarium solani lay in the range of 1 to 10 mg/L (≈ 1.86 to 18.6 µM).
Consider `O=C(Nc1ccc(N2CCN(CCc3ccccn3)CC2)cc1)C(=O)c1c(-c2ccccc2)cc2ccccn12` [Example 36, 2-Oxo-2-(2-phenyl-indolizin-3-yl)-N-{4-[4-(2-pyridin-yl-ethyl)-perazin-1-yl]-phenyl}-acetamide], for which the MIC (in the test with Aspergillus flavus; in test [1]; with Aspergillus fumigatus; with Aspergillus terreus AT49; against Aspergillus terreus; against Aspergillus niger) was below 1 mg/L throughout.
Turning to `O=C(Nc1ccc(N2CCN(Cc3ccco3)CC2)cc1)C(=O)c1c(-c2ccccc2)cc2ccccn12` [Example 31, 4-[4-(2-Furan-2-yl-methyl-piperazin-yl)-phenyl]-2-oxo-2-(2-phenyl-indolizin-3-yl)-acetamide], the MIC (against Aspergillus flavus; in test [1]; with Aspergillus fumigatus; in the test on Aspergillus terreus AT49; in the test with Aspergillus terreus; against Aspergillus niger) was below 1 mg/L in each case.
For the compound `CCn1ccnc1Cc1ccc(NC(=O)C(=O)c2c(-c3ccccc3C)cc3ccccn23)cc1` [Example 30, N-[4-(3-Ethyl-1H-imidazol-2ylmethyl)-phenyl]-2-oxo-2-(2-o-tolyl-indolizin-3yl)-acetamide], the MIC (against Aspergillus flavus; in test [1]; in the test with Aspergillus fumigatus; with Aspergillus terreus AT49; in the test with Aspergillus terreus; with Aspergillus niger) was above 10 mg/L each time.
As to `C=C1CCN(c2ccc(NC(=O)C(=O)c3c(-c4ccccc4)cc4ccccn34)cc2)CC1` [Example 3, N-[4-(4-methylene-piperidin-1-yl)-phenyl]-2-oxo-2-(2-phenyl-indolizin-3yl) acetamide], the MIC (with Aspergillus flavus; in test [1]; in the test with Aspergillus fumigatus; in the test on Aspergillus terreus AT49; against Aspergillus terreus; in the test on Aspergillus niger) was below 1 mg/L throughout. The compound also showed an MIC against Fusarium solani below 1 mg/L.
For the compound `O=C(Nc1ccc(N2CCN(Cc3ccco3)CC2)nc1)C(=O)c1c(-c2ccccc2)cc2ccccn12` [Example 34], the MIC (against Aspergillus flavus; in test [1]; with Aspergillus fumigatus; in the test with Aspergillus terreus AT49; with Aspergillus terreus; with Aspergillus niger) was below 1 mg/L in each case.
Consider `Cc1cc(C)nc(N(C)CCCc2ccc(NC(=O)C(=O)c3c(-c4ccccc4)cc4ccccn34)cc2)c1` [Example 70, N-(4-{3-[(4,6-Dimethyl-pyridin-2-yl)-methyl-amino]-propyl}-phenyl)-2-oxo-2-(2-phenyl-indolizin-3-yl)-acetamide], for which the MIC (against Aspergillus flavus; in test [1]; in the test on Aspergillus fumigatus; with Aspergillus terreus AT49; with Aspergillus terreus; against Aspergillus niger) was below 1 mg/L each time.
Regarding `Cc1nc(C(C)C)cn1C(C)(C)c1cccc(NC(=O)C(=O)c2c(-c3ccccc3)cc3ccccn23)c1` [Example 25], the MIC in the test on Aspergillus flavus is 1 to 10 mg/L (≈ 1.98 to 19.8 µM); in test [1], above 10 mg/L; in the test with Aspergillus fumigatus it was above 10 mg/L; with Aspergillus terreus AT49, 1 to 10 mg/L (≈ 1.98 to 19.8 µM); against Aspergillus terreus, 1 to 10 mg/L (≈ 1.98 to 19.8 µM); in the test with Aspergillus niger, above 10 mg/L.
Regarding `O=C(Nc1ccc(N2CCN(c3ccc(CN4CCOCC4)cn3)CC2)cc1)C(=O)c1c(-c2ccccc2)cc2ccccn12` [Example 77, N-{4-[4-(5-morpholin-4-yl-methyl-pyridin-2-yl)-piperazin-1-yl]-phenyl}-2-oxo-2-(2-phenyl-indolizin-3-yl)-acetamide], the MIC (against Aspergillus flavus; in test [1]; in the test with Aspergillus fumigatus; in the test with Aspergillus terreus AT49; in the test with Aspergillus terreus; in the test with Aspergillus niger) was below 1 mg/L throughout.
On to `O=C(Nc1ccc(N2CCN(c3ccccn3)CC2)cc1)C(=O)c1c(-c2ccccc2)cc2ccc(F)cn12` [Example 42, 2-(6-Fluoro-2-phenyl-indolizin-3-yl)-2-oxo-N-[4-(4-pyridin-2-yl-piperazin-1-yl)phenyl] acetamide], for which the MIC (in the test on Aspergillus flavus; in test [1]; in the test on Aspergillus fumigatus; in the test with Aspergillus terreus AT49; in the test with Aspergillus terreus; in the test on Aspergillus niger) was below 1 mg/L in each case.
On to `Cc1cc(N2CCN(c3ccc(NC(=O)C(=O)c4c(-c5ccccc5)cc5ccccn45)cc3)CC2)nc(C)n1` [Example 45], for which the MIC is below 1 mg/L in the test with Aspergillus flavus; below 1 mg/L in test [1]; below 1 mg/L with Aspergillus fumigatus; below 1 mg/L in the test with Aspergillus terreus AT49; below 1 mg/L in the test with Aspergillus terreus; 1 to 10 mg/L (≈ 1.88 to 18.8 µM) in the test on Aspergillus niger.
Regarding `O=C(Nc1ccc(N2CCN(c3ccccn3)CC2)cc1)C(=O)c1c(-c2ccccc2)cc2ccccn12` [Example 41, 2-Oxo-2-(2-phenyl-indolizin-3yl)-N-[4-(4-pyridin-2-yl-piperizin-1-yl)-phenyl]-acetamide], the MIC (in the test on Aspergillus flavus; in test [1]; with Aspergillus fumigatus; in the test on Aspergillus terreus AT49; against Aspergillus terreus; against Aspergillus niger) was below 1 mg/L each time.
In the case of `Cc1ccccc1-c1cc2ccccn2c1C(=O)C(=O)Nc1ccc(N2CCN(Cc3ccco3)CC2)cn1` [Example 35, N-[5-(2-Furan-2-yl-methyl-piperazin-yl)-peridin-2-yl]-2-oxo-2-(2-o-tolyl-indolizin-3-yl)-acetamide], the “MIC A. flavus” value in the test with Aspergillus flavus is 3 (A grade of 3 represents an MIC of less than 1 mg/L). For the same compound, the “MIC A. fumigatus 210” value in test [1] (strain AF210) is 3 (A grade of 3 represents an MIC of less than 1 mg/L). In the test on Aspergillus fumigatus, the “MIC A. fumigatus” value is given as 3 (A grade of 3 represents an MIC of less than 1 mg/L). Besides, in the test on Aspergillus terreus AT49 (strain AT49), the “MIC A. terreus 49” value is 3 (A grade of 3 represents an MIC of less than 1 mg/L). In the test on Aspergillus terreus, the “MIC A. terreus” value is recorded as 3 (A grade of 3 represents an MIC of less than 1 mg/L). For the same compound, in the test with Aspergillus niger, the “MIC A. niger” value is 3 (A grade of 3 represents an MIC of less than 1 mg/L).
